According to PMC6235531, “Analyzing Protein Architectures and Protein-Ligand Complexes by Integrative Structural Mass Spectrometry” (Journal of Visualized Experiments : JoVE, 2018):
Where a name gives a salt, the structure may show the parent alone.

Experiments:
[1] = molecular target: T1, HerA (Saccharolobus solfataricus, UniProt Q97WG8); experiment: native nESI mass spectrometry titration; format: binding; conditions: increasing ATP-γ-S; no NurA; 200 mM ammonium acetate
T1 construct: purified HerA without NurA, hexamer and heptamer
T1 sequence (Q97WG8 1-500): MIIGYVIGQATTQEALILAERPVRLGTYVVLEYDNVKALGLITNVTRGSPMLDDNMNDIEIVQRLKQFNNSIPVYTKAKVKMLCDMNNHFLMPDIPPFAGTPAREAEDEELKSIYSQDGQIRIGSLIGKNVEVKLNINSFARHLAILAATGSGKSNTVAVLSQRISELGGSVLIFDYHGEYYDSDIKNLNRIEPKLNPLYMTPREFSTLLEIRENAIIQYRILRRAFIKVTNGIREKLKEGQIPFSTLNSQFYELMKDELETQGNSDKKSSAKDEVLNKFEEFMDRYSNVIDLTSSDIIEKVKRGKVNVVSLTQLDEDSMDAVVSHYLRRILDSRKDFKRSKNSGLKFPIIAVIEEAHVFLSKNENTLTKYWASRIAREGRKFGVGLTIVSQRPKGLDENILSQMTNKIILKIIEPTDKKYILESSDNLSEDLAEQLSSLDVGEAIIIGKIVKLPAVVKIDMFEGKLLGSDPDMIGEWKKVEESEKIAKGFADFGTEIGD

[2] = molecular target: T2, HerA-NurA (Saccharolobus solfataricus, UniProt Q97WG8); experiment: native nESI mass spectrometry titration; format: binding; conditions: 5 uM protein, 0-1 mM ligand, 2 mM MgCl2, 25 °C 1 h, then 200 mM ammonium acetate pH 7; also tested with 25 bp dsDNA
T2 construct: purified HerA hexamer with NurA dimer; with DNA double-strand break repair nuclease NurA
T2 sequence (Q97WH1 whole entry, one chain of several, further chain): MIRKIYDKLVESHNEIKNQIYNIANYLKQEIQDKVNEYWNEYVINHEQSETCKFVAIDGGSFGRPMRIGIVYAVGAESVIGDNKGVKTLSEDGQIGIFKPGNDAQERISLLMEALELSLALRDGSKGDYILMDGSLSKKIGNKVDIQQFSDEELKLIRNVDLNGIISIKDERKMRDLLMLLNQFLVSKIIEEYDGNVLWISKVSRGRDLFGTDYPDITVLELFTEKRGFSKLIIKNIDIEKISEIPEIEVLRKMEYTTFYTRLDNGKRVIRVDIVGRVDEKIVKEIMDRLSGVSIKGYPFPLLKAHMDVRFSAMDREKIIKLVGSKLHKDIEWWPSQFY

SMILES | native nESI mass spectrometry titration [1] | native nESI mass spectrometry titration [2]
Nc1ncnc2c1ncn2[C@@H]1O[C@H](COP(=O)(O)OP(=O)(O)OP(O)(O)=S)[C@@H](O)[C@H]1O [ATP-γ-S, adenosine 5′-O-(3-thiotriphosphate), tetralithium salt] | Number of ATP-γ-S molecules bound is shown on the spectra | ATP-γ-S and ADP titrations experiments determined the pairwise nucleotide binding to HerA-NurA alone
Nc1ncnc2c1ncn2[C@@H]1O[C@H](COP(=O)(O)OP(=O)(O)O)[C@@H](O)[C@H]1O [ADP] | – | ATP-γ-S and ADP titrations experiments determined the pairwise nucleotide binding to HerA-NurA alone
